Data as given in US10590143B2, “Herbicidally active (alkynyl-phenyl)-substituted cyclic dione compounds and derivatives thereof” (Syngenta Limited, priority 2013, dated 2020).
Like-named read-outs stand apart in the source and are kept apart here.

Legend:
Assay type in all cases: in vivo
[1] = tested on: Brassica napus (BRSNN, rape); assay: Biological Example 2 glasshouse assay for herbicidal activity; conditions: post-emergence, 14 or 15 DAA, 0.2% v/v X-77
Protocol: (§1) Seeds of a variety of monocotyledonous and dicotyledonous test plants are sown in standard soil in pots. The plants are cultivated for one day (for pre-emergence) or for about 12 days (range=10-13 days) (for post-emergence) under controlled conditions in a glasshouse (warm climate species at 24/18° C., cool climate species at 20/16° C., both at day/night; 16 hours light; 65% humidity).
(§2) An “instant formulation”, known as the “IF50”, containing 50 g/litre (i.e. 5% w/v) of the “technical” (i.e. unformulated) active ingredient is prepared by dissolving the active ingredient in a mixture of organic solvents and emulsifier, details of which are provided in the Table below. This IF50 is then mixed with a small, variable amount of acetone to aid dissolution, before addition of a 0.2% v/v aqueous solution of the adjuvant X-77 (which is a mixture of alkyl aryl polyoxyethylene glycols and free fatty acids in isopropanol, CAS Registry number 11097-66-8), as the aqueous diluent, to form an aqueous spray solution which contains a predetermined concentration of the active ingredient (which varies depending on the application rate of the active ingredient to the plants) and 0.2% v/v of the adjuvant X-77. This aqueous spray solution is then sprayed onto the plants, after one day's cultivation (for pre-emergence) or after about 12 days' cultivation (for post-emergence).
(§3) The test plants are then grown on, in a glasshouse (greenhouse) under controlled conditions (at either 24/18° C. or 20/16° C. (day/night) as mentioned above; 16 hours light; 65% humidity) and are watered twice daily. Either 14 or 15 days after application of the herbicide (14 or 15 DAA) (for post-emergence), or 20 days after application of the herbicide (20 DAA) (for pre-emergence), the test plants are evaluated visually, and an assessed percentage phytotoxicity score is given for each herbicidal application on each plant species (where 100%=total damage to plant; 0%=no damage to plant).
(§4) Some of the typical test plants are as follows: • Cool climate crop plants: Triticum aestivum (TRZAW, winter wheat), Brassica napus (BRSNN, rape, also called oilseed rape or rapeseed), Beta vulgaris (BEAVA, sugarbeet). • Warm climate crop plants: Glycine max (GLXMA, soybean). • Cool climate (“cool season”) grassy monocotyledonous weeds: Alopecurus myosuroides (ALOMY), Avena fatua (AVEFA), Lolium perenne (LOLPE), Poa annua (POAAN), Bromus tectorum (BROTE). • Warm climate (“warm season”) grassy monocotyledonous weeds: Setaria faberi (SETFA), SORVU (Sorghum bicolor (L.) Moench ssp. Bicolor, or Sorghum vulgare Pers.), Digitaria sanguinalis (DIGSA), Echinochloa crus-galli (ECHCG), Brachiaria plantaginea (BRAPL); Zea mays (ZEAMX, corn, maize, e.g. volunteer corn).

Lolium perenne (LOLPE) = assay: as above; conditions: post-emergence, 14 or 15 DAA
Protocol: as §1, §2, §3, §4

[2] = tested on: Amaranthus retroflexus (AMARE); assay: Biological Example 1 glasshouse assay for herbicidal activity; conditions: 13 days after application; for pest or weed control at 8 g/ha / pest or weed control at 250 g/ha / pest or weed control at 30 g/ha: Amaranthus retroflexus, 312 h, read-out: percentage phytotoxicity AMARE
Protocol: (§5) Seeds of a variety of test plant species were sown in standard soil** in pots. After cultivation for one day (pre-emergence) or after 8 days cultivation (post-emergence) under controlled conditions in a glasshouse (at 24/16° C., day/night; 14 hours light; 65% humidity), the plants were sprayed with an aqueous spray solution derived from the formulation of the technical active ingredient (the test herbicide) in acetone/water (50:50) solution containing 0.5% Tween 20 (polyoxyethylene sorbitan monolaurate, CAS Reg. No. 9005-64-5). The test plants were then grown on under controlled conditions in a glasshouse (at 24/16° C., day/night; 14 hours light; 65% humidity) and watered twice daily. 13 Days after application of the test herbicide, for pre- and post-emergence, the test was evaluated visually for percentage phytotoxicity to each plant (where 100%=total damage to plant; 0%=no damage to plant). Generally, each test herbicide is only tested on 1 plant per plant species for each application rate tested and for each application timing. **The “standard soil” in Biological Example 1 is usually a “sand” or “sandy loam” type of soil.
(§6) Dicotyledonous weeds: ABUTH=Abutilon theophrasti; AMARE=Amaranthus retroflexus. Grassy monocotyledonous weeds: SETFA=Setaria faberi; ALOMY=Alopecurus myosuroides; ECHCG=Echinochloa crus-galli; ZEAMX=Zea mays (corn, maize, e.g. volunteer corn).

[3] = tested on: Alopecurus myosuroides (ALOMY); assay: as above; conditions: 312 h, 13 days after application, read-out: percentage phytotoxicity ALOMY
Protocol: as §5, §6

Setaria faberi (SETFA) = assay: as above; conditions: 312 h, 13 days after application, read-out: percentage phytotoxicity SETFA
Protocol: as §5, §6

[4] = tested on: Abutilon theophrasti (ABUTH); assay: as above; conditions: 312 h, 13 days after application, read-out: percentage phytotoxicity ABUTH
Protocol: as §5, §6

[5] = tested on: Zea mays (ZEAMX, corn, maize, e.g. volunteer corn); assay: as above; conditions: 13 days after application; for pest or weed control at 8 g/ha / pest or weed control at 30 g/ha / pest or weed control at 250 g/ha: Zea mays, 312 h, read-out: percentage phytotoxicity ZEAMX; for pest or weed control at 250 g/ha / percentage phytotoxicity ZEAMX: 250 g/ha
Protocol: as §5, §6

[6] = tested on: Echinochloa crus-galli (ECHCG); assay: as above; conditions: 13 days after application; for pest or weed control at 30 g/ha / pest or weed control at 250 g/ha: Echinochloa crus-galli, 312 h, read-out: percentage phytotoxicity ECHCG; for pest or weed control at 250 g/ha / percentage phytotoxicity ECHCG: 250 g/ha
Protocol: as §5, §6

[7] = Brassica napus, 360 h, 250 g/ha, read-out: percentage phytotoxicity BRSNN
[8] = Lolium perenne, 360 h, 250 g/ha, 0.2% v/v X-77, read-out: percentage phytotoxicity LOLPE
[9] = post-emergence, post-emergence, 250 g/ha
[10] = pre-emergence, pre-emergence, 250 g/ha

| Structure (SMILES) | plant injury at 250 g/ha [1, 7] [%] | pest or weed control at 250 g/ha (Lolium perenne (LOLPE); [8]) [%] | pest or weed control at 250 g/ha [2, 9] [%] | pest or weed control at 30 g/ha ([2]; pre-emergence, pre-emergence) [%] | pest or weed control at 250 g/ha [2, 10] [%] | pest or weed control at 30 g/ha ([3]; post-emergence) [%] | pest or weed control at 250 g/ha ([3]; post-emergence) [%] | pest or weed control at 30 g/ha ([3]; pre-emergence) [%] | pest or weed control at 250 g/ha ([3]; pre-emergence) [%] | pest or weed control at 250 g/ha (Setaria faberi (SETFA); post-emergence, post-emergence) [%] | pest or weed control at 250 g/ha (Setaria faberi (SETFA); pre-emergence, pre-emergence) [%] | pest or weed control at 30 g/ha ([4]; pre-emergence, pre-emergence) [%] | pest or weed control at 30 g/ha ([5]; post-emergence, post-emergence) [%] | pest or weed control at 250 g/ha ([5]; post-emergence, post-emergence) [%] | pest or weed control at 30 g/ha ([5]; pre-emergence, pre-emergence) [%] | pest or weed control at 250 g/ha ([5]; pre-emergence, pre-emergence) [%] | pest or weed control at 30 g/ha ([6]; post-emergence, post-emergence) [%] | pest or weed control at 250 g/ha ([6]; post-emergence, post-emergence) [%] | pest or weed control at 250 g/ha ([6]; pre-emergence, pre-emergence) [%] | pest or weed control at 30 g/ha (Setaria faberi (SETFA); pre-emergence, pre-emergence) [%] | further results |
| --- | --- | --- | --- | --- | --- | --- | --- | --- | --- | --- | --- | --- | --- | --- | --- | --- | --- | --- | --- | --- | --- |
| CC#Cc1cc(F)c(C2C(=O)C3CCC(C3)C2=O)c(OC)c1 (stereo not drawn) [Compound A1, 3-(2-Fluoro-6-methoxy-4-prop-1-ynyl-phenyl)-bicyclo[3.2.1]octane-2,4-dione] | 80 | 100 | 30 | 0 | 20 | 100 | 100 | 100 | 100 | 100 | 100 | 0 | 100 | 100 | 100 | 100 | 100 | 100 | 100 |  | plant injury at 30 g/ha ([1]; Brassica napus, 360 h, 30 g/ha, read-out: percentage phytotoxicity BRSNN): 40%; percentage phytotoxicity BRSNN ([1]; 250 g/ha): 80%; pest or weed control at 30 g/ha (Lolium perenne (LOLPE); Lolium perenne, 360 h, 30 g/ha, 0.2% v/v X-77, read-out: percentage phytotoxicity LOLPE): 90%; percentage phytotoxicity LOLPE (Lolium perenne (LOLPE); 250 g/ha, 0.2% v/v X-77): 100%; pest or weed control at 8 g/ha ([2]; post-emergence, post-emergence): 0%; pest or weed control at 8 g/ha ([2]; pre-emergence, pre-emergence): 0%; percentage phytotoxicity AMARE ([2]; post-emergence, 250 g/ha): 30%; pest or weed control at 8 g/ha ([3]; post-emergence): 80%; pest or weed control at 8 g/ha ([3]; pre-emergence): 70%; pest or weed control at 8 g/ha (Setaria faberi (SETFA); pre-emergence, pre-emergence, 8 g/ha): 50%; pest or weed control at 8 g/ha ([4]; post-emergence, post-emergence): 0%; pest or weed control at 8 g/ha ([4]; pre-emergence, pre-emergence): 0%; pest or weed control at 8 g/ha ([5]; post-emergence, post-emergence): 100%; pest or weed control at 8 g/ha ([5]; pre-emergence, pre-emergence): 60%; percentage phytotoxicity ZEAMX ([5]; post-emergence): 100%; percentage phytotoxicity ZEAMX ([5]; pre-emergence): 100%; percentage phytotoxicity ECHCG ([6]; post-emergence): 100%; percentage phytotoxicity ECHCG ([6]; pre-emergence): 100% |
| CC#Cc1cc(F)c(C2C(=O)C3CCC(C)(C2=O)C3(C)C)c(OC)c1 (stereo not drawn) [Compound A2] | 10 | 0 | 0 | 10 | 40 | 80 | 90 | 70 | 90 | 90 | 100 | 60 | 100 | 100 | 60 | 100 | 100 | 100 | 100 | 70 | pest or weed control at 30 g/ha ([2]; post-emergence, post-emergence): 0%; pest or weed control at 30 g/ha (Setaria faberi (SETFA); post-emergence, post-emergence): 90%; pest or weed control at 30 g/ha ([4]; post-emergence, post-emergence): 0%; pest or weed control at 250 g/ha ([4]; post-emergence, post-emergence): 0%; pest or weed control at 250 g/ha ([4]; pre-emergence, pre-emergence): 60%; pest or weed control at 30 g/ha ([6]; pre-emergence, pre-emergence): 90% |
| COc1cc(C#CCl)cc(F)c1C1C(=O)C2CCC(C2)C1=O (stereo not drawn) [Compound A8, 3-[4-(2-chloroethynyl)-2-fluoro-6-methoxy-phenyl]bicyclo[3.2.1]octane-2,4-dione] |  |  | 10 | 50 | 40 |  | 70 | 40 | 60 | 70 | 60 | 10 |  | 50 | 60 | 70 |  | 70 | 60 | 60 | pest or weed control at 250 g/ha ([4]; post-emergence, post-emergence): 0%; pest or weed control at 250 g/ha ([4]; pre-emergence, pre-emergence): 0%; pest or weed control at 30 g/ha ([6]; pre-emergence, pre-emergence): 30% |
